We go through 12 compounds from patent US9714247B2, “Multiple kinase pathway inhibitors” (Mannkind Corporation, priority 2012, dated 2017).

The structures appear in SMILES notation. Like-named read-outs stand apart in the source and are kept apart here. A value given as a limit tells only on which side of the number the result lay.

Assay [1] concerns phosphorylation of SFKs in Ramos cells. Description: SFK phosphorylation (Tyr 416) by flow cytometry. The assay is classed as cell-based, human. As to conditions: Homo sapiens, 0.3 uM, flow cytometry, SFK phosphorylated at Tyr 416, read-out: pSRC % inhibition. The procedure: Ramos cell lysates from stimulated and unstimulated cells were analyzed for the levels of phosphorylated SRC family members. As described in Example 82 (above), cells were pretreated for 2 hours with an amino naphthyridinones and then stimulated with anti-IgM antibody and H2O2, protein lysates were prepared, quantified and used for Western blotting. A commercially available antibody that detects Src phosphorylated at Tyr 416 (Cell Signalling) and may cross-react with other Src family members such as Lyn, Fyn, Lck, Yes and Hck when phosphorylated at equivalent sites was used for Western blot analysis. The molecular weights of SFK family members are quite similar (in the 55-60 kDa range) and different family members cannot be resolved by the conditions used for the Western blot. […] The procedure can be similarly adapted for flow cytometric analysis as with the PLC-γ2 assay in Example 82. Ramos cells were incubated with Compound 1 for 2 hrs in RPMI media with 5% FBS prior to stimulation stimulated with H2O2/anti-IgM/F(Ab) for 10 minutes. Cells were evaluated by FACS analysis using anti-pSRC antibody and FITC-conjugated goat anti-rabbit secondary antibody following overnight storage at 4° C. in BD perm/wash buffer.
Ramos cells were prepared for flow cytometry analysis as described in example 82, and stained with a commercially available antibody that detects SFK phosphorylated at Tyr 416, followed by Alexa Fluor 488 conjugated secondary antibody. […] Thus amino naphthyridinones are useful in the inhibition of the phosphorylation of SFKs.
For orientation: In flow cytometry, cells or beads pass a laser one at a time.

The target in the next assay is BTK (Homo sapiens (Human), UniProt Q06187).
In assay [2] the target is T1, Lyn (Homo sapiens (Human), UniProt P07948). As to conditions: read-out: Lyn IC50.
The subject of assay [3] is PLCγ2 phosphorylation in Ramos cells. The experiment in a line: PLCγ2 phosphorylation by flow cytometry. The assay is classed as cell-based, human. As to conditions: Homo sapiens, flow cytometry; for inhibition at 0.3 µM: anti-phospho PLCγ2 (Tyr759), read-out: pPLCγ % inhibition. As to the method: Ramos cells were cultured in RPMI 1640 media with 10% FBS and were starved overnight (18 h) in 1% FBS containing media and on the next day pretreated with inhibitor for 2 h before stimulation. Cells were stimulated to induce BTK network dependent signal transduction pathways using mouse anti-human IgM (final concentration 10 ug/ml; Invitrogen) antibodies and 3.3 mM H2O2 mixture for 2 minutes followed by F(Ab) fragment that cross-linked the anti-IgM antibody (final concentration 10 ug/ml), and 3.3 mM H2O2 for 8 minutes. Cell lysates were prepared in lysis buffer containing protease and phosphatase inhibitors, quantified using the BCA protein assay kit (Pierce) and used for Western blotting. Antibodies specifically targeted to the molecules of interest, PLCγ2 phosphorylated at Tyr1217 and total PLCγ2, (Cell Signaling Technology) were used in a standard Western blotting procedure.
PLCγ2 phosphorylation was also assessed by flow cytometry. Cells were similarly stimulated and following stimulation, Cytofix buffer (Becton Dickinson) was added, cells were centrifuged and the cell pellets incubated on ice with Phosflow perm buffer III (Becton Dickinson). These cell pellets were washed with Perm/Wash buffer (Becton Dickinson); resuspended and labeled for flow cytometry analysis in a staining mixture containing Perm/Wash buffer and PE-labeled anti-phosphoPCLγa2 (Tyr1217) antibody (Becton Dickinson). The samples were washed with Perm/Wash buffer and analyzed on a FACS Calibur flow cytometer using CellQuest Pro software. As mentioned for the Western blot experiments, phosphorylation of PLCγ2 at Tyr1217 along with Tyr753, Tyr759 and Tyr1197 is correlated with increased PLCγ2 activity. The readout for BTK network signaling was inhibition of phosphorylation of PLCγ2. Cells were gated to exclude dead or dying cells. Fluorescence signals from the antibody staining were plotted in logarithmic units and data was analyzed using Cellquest Pro software. […] An ED50 was calculated based on the geometric mean of fluorescence intensity observed for treatment for four different concentrations of the inhibitors (see Table 7 and FIG. 6). […] Thus treatment with amino naphthyridinones inhibits PLCγ2 phosphorylation consistent with inhibition of BTK and/or LYN activity.
Following stimulation, cells were prepared for analysis by flow cytometry as described above. In short, cells were fixed and permeabilized using Cytofix buffer, Phosflow perm buffer and Perm/Wash buffer (Becton Dickinson). The cells were stained with PE-labeled anti-phosphoPCLγ2 (Tyr759) antibody (Becton Dickinson) and analyzed on a FACS Calibur flow cytometer using CellQuest Pro software. […] Thus aminonaphthyridinones are useful for the indirect inhibition of PLCγ2 phosphorylation.

Assay [4] has as its target T2, Src (Homo sapiens (Human), UniProt P12931). To be noted: read-out: Src IC50.
The next assay has as its system DoHH2. The experiment in a line: CellTiter-Glo proliferation/viability assay. It is filed as cell-based, human. To be noted: Homo sapiens, DOHH-2.
The test system of the next assay is Ramos. The experiment in a line: CellTiter-Glo proliferation/viability assay. The assay is classed as cell-based, human. As to conditions: Homo sapiens, Ramos, read-out: Ramos EC50. (In general: ATP-based viability assays read luminescence as a measure of living cells.)
Assay [5] deals with T1, Lyn. The experiment in a line: biochemical.
Assay [6] deals with T2, Src. The experiment in a line: biochemical.
In the next assay the test system is DoHH2 cells. To be noted: treated 24 hours.
[7] abbreviates: Table 4, DoHH2 cells, read-out: EC50 (Proliferation).

T2 sequence (P12931 whole entry, looked up): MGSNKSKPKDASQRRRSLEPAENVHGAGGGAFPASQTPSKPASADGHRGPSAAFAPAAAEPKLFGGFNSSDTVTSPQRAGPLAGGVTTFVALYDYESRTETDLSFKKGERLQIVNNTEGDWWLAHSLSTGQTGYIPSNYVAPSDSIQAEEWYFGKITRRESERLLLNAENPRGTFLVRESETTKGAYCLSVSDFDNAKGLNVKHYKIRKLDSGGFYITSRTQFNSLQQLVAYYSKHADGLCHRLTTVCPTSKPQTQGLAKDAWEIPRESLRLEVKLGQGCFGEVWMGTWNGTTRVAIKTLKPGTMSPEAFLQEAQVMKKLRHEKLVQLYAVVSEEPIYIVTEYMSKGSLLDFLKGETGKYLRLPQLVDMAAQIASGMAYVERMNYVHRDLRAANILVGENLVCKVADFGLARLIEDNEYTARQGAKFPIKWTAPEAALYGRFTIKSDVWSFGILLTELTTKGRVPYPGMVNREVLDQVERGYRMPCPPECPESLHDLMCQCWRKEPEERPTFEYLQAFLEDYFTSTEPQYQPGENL
T1 sequence (P07948 whole entry, the tested form may be a part): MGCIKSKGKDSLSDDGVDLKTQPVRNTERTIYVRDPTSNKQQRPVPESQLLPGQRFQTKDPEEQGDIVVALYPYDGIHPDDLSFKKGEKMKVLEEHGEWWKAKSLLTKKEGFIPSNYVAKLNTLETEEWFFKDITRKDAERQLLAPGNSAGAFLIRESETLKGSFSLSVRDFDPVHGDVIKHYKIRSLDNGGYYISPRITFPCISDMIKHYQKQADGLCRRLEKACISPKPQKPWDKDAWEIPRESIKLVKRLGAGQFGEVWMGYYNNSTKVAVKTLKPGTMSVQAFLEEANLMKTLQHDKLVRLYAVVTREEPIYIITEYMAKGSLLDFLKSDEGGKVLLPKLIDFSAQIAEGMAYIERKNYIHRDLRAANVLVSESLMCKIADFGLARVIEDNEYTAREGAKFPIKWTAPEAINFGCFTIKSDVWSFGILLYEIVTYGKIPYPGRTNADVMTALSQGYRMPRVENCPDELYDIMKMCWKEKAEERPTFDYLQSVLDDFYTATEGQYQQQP
BTK, sequence (Q06187 whole entry): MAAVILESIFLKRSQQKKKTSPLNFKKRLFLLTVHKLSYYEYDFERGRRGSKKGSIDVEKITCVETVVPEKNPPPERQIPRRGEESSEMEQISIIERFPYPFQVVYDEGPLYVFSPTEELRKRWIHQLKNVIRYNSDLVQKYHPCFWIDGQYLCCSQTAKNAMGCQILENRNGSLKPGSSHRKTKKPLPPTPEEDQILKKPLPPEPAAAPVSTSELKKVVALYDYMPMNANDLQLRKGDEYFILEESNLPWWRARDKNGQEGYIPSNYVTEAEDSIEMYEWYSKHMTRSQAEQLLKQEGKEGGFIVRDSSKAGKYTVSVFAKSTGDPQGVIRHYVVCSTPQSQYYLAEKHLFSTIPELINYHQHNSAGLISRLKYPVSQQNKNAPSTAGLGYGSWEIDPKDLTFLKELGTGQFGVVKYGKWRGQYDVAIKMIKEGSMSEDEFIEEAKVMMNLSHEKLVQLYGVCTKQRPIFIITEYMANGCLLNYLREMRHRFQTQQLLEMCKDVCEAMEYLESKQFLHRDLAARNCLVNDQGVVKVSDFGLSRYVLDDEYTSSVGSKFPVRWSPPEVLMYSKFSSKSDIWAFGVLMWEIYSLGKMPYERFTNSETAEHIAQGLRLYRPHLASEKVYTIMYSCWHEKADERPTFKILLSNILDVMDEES

Take `CCN(CC)CCOc1ccc(Nc2cc3c(cn2)cc(-c2ccc(F)cc2F)c(=O)n3CC)nc1` [Compound 100, 7-((5-(2-(diethylamino)ethoxy)pyridin-2-yl)amino)-3-(2,4-difluorophenyl)-1-ethyl-1,6-naphthyridin-2(1H)-one]: the inhibition (usually the relative decrease from the control value, in per cent) at 0.3 µM in [1] was determined as 30%; in assay [3], 70%. Also, the concentration for half-maximal inhibition (IC50) on BTK (read-out: BTK IC50), on Lyn [2] and at Src [4] was under 100 nM each time. Also, the EC50 was under 1000 nM in the assay with DoHH2 (48 hrs, read-out: DoHH2 EC50) and 1000 to 10000 nM with Ramos (48 hrs).
Take `CCn1c(=O)c(-c2ccccc2F)cc2cnc(Nc3ccc(F)cn3)cc21` [Compound 72, 1-ethyl-3-(2-fluorophenyl)-7-(5-fluoropyridin-2-ylamino)-1,6-naphthyridin-2 (1H)-one]: the figures for the 50% inhibitory concentration (IC50) against Lyn [5], against Src [6] and against BTK were 100 to 1000 nM, 1000 to 5000 nM and 1000 to 5000 nM, respectively. Also, the “Effect on Cell Cycle” value with DoHH2 cells is given as “G1 Arrest”. Moreover, the EC50 in the assay on DoHH2 (48 hrs, read-out: DoHH2 EC50) was 1000 to 10000 nM; in the assay on DoHH2 (setting [7]) it was 1000 to 10000 nM; in the assay on Ramos (48 h), over 10000 nM.
Turning to `CN1CCC(N(C)c2ccc(Nc3cc4c(cn3)cc(-c3c(F)cccc3F)c(=O)n4C)nc2)CC1` [Compound 135, 3-(2,6-difluorophenyl)-1-methyl-7-((5-(methyl(1-methylpiperidin-4-yl)amino)pyridin-2-yl)amino)-1,6-naphthyridin-2(1H)-one], the inhibition at 0.3 µM in assay [1] was 49%; in assay [3] it was 82%. The IC50 on BTK (read-out: BTK IC50), on Lyn [2] and at Src [4] was under 100 nM throughout. The EC50 is under 1000 nM in the assay with DoHH2 (48 hrs, read-out: DoHH2 EC50) and 1000 to 10000 nM in the assay on Ramos (48 h).
For the compound `CCn1c(=O)c(-c2ccccc2F)cc2cnc(Nc3ccc(C)cn3)cc21` [Compound 35, 1-ethyl-3-(2-fluorophenyl)-7-(5-methylpyridin-2-ylamino)-1,6-naphthyridin-2(1H)-one], the IC50 (commonly the concentration that inhibits the measured activity by half) was 100 to 1000 nM against Src [6], 100 to 1000 nM against BTK and under 100 nM at Lyn [2]. Moreover, the “Effect on Cell Cycle” value in the assay with DoHH2 cells is “G1 Arrest”. The EC50 with DoHH2 (48 hrs, read-out: DoHH2 EC50) is under 1000 nM; with DoHH2 (setting [7]), under 1000 nM; in the assay on Ramos (48 h) it was over 10000 nM.
For `CCn1c(=O)c(-c2ccccc2)cc2cnc(Nc3nccs3)cc21` [Compound 42, 1-Ethyl-3-phenyl-7-(thiazol-2-ylamino)-1H-[1,6]naphthyridin-2-one], the IC50 is 1000 to 5000 nM at Src [6], 1000 to 5000 nM against BTK and over 5000 nM at Lyn [2]. Also, the “Effect on Cell Cycle” value in the assay on DoHH2 cells is listed as “G2 Arrest”. The EC50 in the assay on DoHH2 (48 hrs, read-out: DoHH2 EC50) is under 1000 nM; with DoHH2 (setting [7]), under 1000 nM; with Ramos (48 hrs) it was under 1000 nM.
Take `CCn1c(=O)c(-c2ccccc2)cc2cnc(Nc3ncc(C)s3)cc21` [Compound 8, 1-Ethyl-7-(5-methyl-thiazol-2-ylamino)-3-phenyl-1H-[1,6]naphthyridin-2-one]: the IC50 on Lyn [5] lay within 100 to 1000 nM; on Src [6], 1000 to 5000 nM; against BTK, 1000 to 5000 nM. Besides, in the assay on DoHH2 cells, the “Effect on Cell Cycle” value is on record as “No Arrest”. In addition, the EC50 with DoHH2 (48 hrs, read-out: DoHH2 EC50) was over 10000 nM; in the assay with DoHH2 (setting [7]), over 10000 nM; with Ramos (48 h), over 10000 nM.
Regarding `CCN(CC)CCOc1ccc(Nc2cc3c(cn2)cc(-c2ccccc2)c(=O)n3C2CCOC2)nc1` (stereo not shown) [Compound 17, 7-((5-(2-(diethylamino)ethoxy)pyridin-2-yl)amino)-3-phenyl-1-(tetrahydrofuran-3-yl)-1,6-naphthyridin-2(1H)-one], the values for the IC50 against Lyn [5], at Src [6] and on BTK were 100 to 1000 nM, 100 to 1000 nM and 1000 to 5000 nM, respectively. Moreover, the “Effect on Cell Cycle” value in the assay on DoHH2 cells was “G1 Arrest”. Besides, the EC50 with DoHH2 (48 hrs, read-out: DoHH2 EC50) was under 1000 nM; in the assay with DoHH2 (setting [7]), under 1000 nM; in the assay on Ramos (48 h) it was 1000 to 10000 nM.
Consider `CCn1c(=O)c(-c2ccccc2)cc2cnc(Nc3ccc(NCCN(C)C)cn3)cc21` [Compound 67, 7-[5-(2-Dimethylamino-ethylamino)-pyridin-2-ylamino]-1-ethyl-3-phenyl-1H-[1,6]naphthyridin-2-one], for which the IC50 at Src [6] was 1000 to 5000 nM; at Lyn [2] it was under 100 nM. In the assay with DoHH2 cells, the “Effect on Cell Cycle” value is “G1 Arrest”. Besides, the EC50 was under 1000 nM with DoHH2 (48 hrs, read-out: DoHH2 EC50); under 1000 nM in the assay on DoHH2 (setting [7]); 1000 to 10000 nM with Ramos (48 hrs).
Regarding `CCN(CC)CCOc1ccc(Nc2cc3c(cn2)cc(C(C)C)c(=O)n3C2CCCC2)nc1` [Compound 46, 1-Cyclopentyl-7-[5-(2-diethylamino-ethoxy)-pyridin-2-ylamino]-3-isopropyl-1H-[1,6]naphthyridin-2-one], the IC50 against Lyn [5], at Src [6] and on Lyn [2] was 100 to 1000 nM in each case. Besides, the “Effect on Cell Cycle” value in the assay with DoHH2 cells was “G1 Arrest”. In addition, the EC50 was 930 nM in [3] (anti-phospho PLCγ2 (Tyr1217), four concentrations, read-out: Inhibition of phosphorylation of PLC-γ2 EC50); under 1000 nM in the assay with DoHH2 (48 hrs, read-out: DoHH2 EC50); under 1000 nM in the assay on DoHH2 (setting [7]); 1000 to 10000 nM in the assay on Ramos (48 hrs).
Take `CCc1cc2cnc(Nc3ccc(C)cn3)cc2n(CC)c1=O` [Compound 19, 1,3-Diethyl-7-(5-methyl-pyridin-2-ylamino)-1H-[1,6]naphthyridin-2-one]: the “Effect on Cell Cycle” value in the assay on DoHH2 cells is “No Arrest”. In addition, the IC50 is 100 to 1000 nM against BTK, over 5000 nM at Lyn [2] and over 5000 nM on Src [4]. Moreover, the EC50 lay in the range of 1000 to 10000 nM in the assay on DoHH2 (48 hrs, read-out: DoHH2 EC50); 1000 to 10000 nM with DoHH2 (setting [7]); 1000 to 10000 nM in the assay on Ramos (48 hrs).
Consider `CCn1c(=O)c(-c2ccccc2)cc2cnc(Nc3ccc(O)cn3)cc21` [Compound 52, 1-Ethyl-7-(5-hydroxy-pyridin-2-ylamino)-3-phenyl-H-[1,6]naphthyridin-2-one], for which the IC50 against Lyn [5] was 100 to 1000 nM; at BTK, 100 to 1000 nM; at BTK (read-out: BTK IC50), 100 to 1000 nM; on Lyn [2], 100 to 1000 nM; at Src [4], under 100 nM. Moreover, in the assay on DoHH2 cells, the “Effect on Cell Cycle” value is on record as “G1 Arrest”. Besides, the EC50 was 1000 to 10000 nM in the assay on DoHH2 (48 hrs, read-out: DoHH2 EC50); 1000 to 10000 nM with DoHH2 (setting [7]); over 10000 nM with Ramos (48 hrs).
As to `CCN(CC)CCOc1ccc(Nc2cc3c(cn2)cc(-c2ccccc2)c(=O)n3CCN(C)C)nc1` [Compound 73, 7-(5-(2-(diethylamino)ethoxy)pyridin-2-ylamino)-1-(2-(dimethylamino)ethyl)-3-phenyl-1,6-naphthyridin-2(1H)-one], the 50% inhibitory concentration (IC50) at Lyn [5] (Lyn IC50), at Src [6], at BTK, at BTK (read-out: BTK IC50) and on Lyn [2] was 100 to 1000 nM throughout. Also, the “Effect on Cell Cycle” value with DoHH2 cells is given as “G1 Arrest”. Besides, the EC50 was under 1000 nM in the assay with DoHH2 (48 hrs, read-out: DoHH2 EC50); under 1000 nM in the assay with DoHH2 (setting [7]); 1000 to 10000 nM with Ramos (48 h).
